Measured values as given in paper PMC11354720, “Assessing the Efficacy of Protease Inactivation for the Preservation of Bioactive Amphibian Skin Peptides” (International Journal of Molecular Sciences, 2024).
Like-named read-outs stand apart in the source and are kept apart here. Where a SMILES comes first, the peptide text is derived from it. Bridges are numbered along the chain shown (N, C = ends). Where no end group is shown, it is not given here.

Tested on: proteases in Pelophylax esculentus skin secretion
Assay type: in vitro ADME
Conditions: for Proteoforms, %: sum of all proteolytic forms; for Proteoforms, % / Intact, % / Oxidized, %: LC-HRMS; for Intact, %: one frog per sample; for Efficiency of the reagent in deactivating proteases in amphibian skin secretions: comparison of HCl 1%, CH3OH, HCOOH 1%, PMSF 0.1 and 1.0 mM by preservation of nine intact peptides; for Oxidized, %: Met oxidized to methionine sulfoxide
Experimental: The inhibitory capacity of methanol and hydrochloric and formic acids, as well as PMSF at the minimum and maximum concentrations traditionally used in proteomics (0.1–1.0 mM), was compared via mass spectrometric monitoring of intact and proteolytic forms of nine peptides in five samples of Pelophylax esculentus secretions (samples 1–5).
Table 2 presents quantitative data for each of the nine peptides in Table 1, showing the percentage ratio of the intact (original) form of the peptide, the oxidized form (in the presence of methionine in the sequence), and the resulting proteolytic forms: products of the action of the remaining non-deactivated proteases. The full list of the detected proteolytic forms is included into the supporting material. The presence of one or another proteolytic form for each peptide in each of the five samples was determined by observing the coincidence of their exact experimental mass with the calculated one (within 0.5 ppm according to the mass spectra), as well as the coincidence of their sequences (tandem mass spectra data).
When calculating the data in Table 2, the total amount of intensities of all its formed forms in the mass spectra was taken as 100% for each peptide. To calculate the content in each of the samples of the intact, oxidized (if any), or proteolytic form of each of the nine peptides, the sum of the intensities of the chromatographic peaks of its multicharged ions, exactly corresponding to the values of the polyprotonated molecules of each of the forms, was used. The line “Proteoforms, %” took into account the sum of all proteolytic forms of a particular peptide for each of the five samples. The values of the intensities of each of the forms (intact, oxidized, and proteolytic) obtained in this way were summed up and, in relation to their resulting sum, the percentage content of each of the three forms in Table 2 was calculated for each of the five samples with different reagents.
The skin secretions of five sexually mature female specimens of the same size of Pelophylax esculentus, caught within the Moscow city limits, were obtained via mild electro-stimulation of the skin glands using a laboratory electro-stimulator [15, 51]. The “milking” parameters were as follows: signal frequency 50 Hz, pulse duration 3 ms, voltage 12 V, total stimulation time 40 s. The secretion was washed off with deionized water into separate containers, to which the following reagents were immediately added individually: —HCl to final concentration 1% (sample 1); —CH3OH (sample 2); —HCOOH to final concentration 1% (sample 3); —0.1 mM PMSF (sample 4 in DMSO); —1.0 mM PMSF (sample 5 in DMSO). All samples were centrifuged for 15 min at 3 000 rpm, filtered through removable membrane filters (PTFE 0.45 μm), and lyophilized. The storage temperature was −26 °C. All five individuals were immediately returned to their place of capture after the procedure.
Mass spectra were obtained on an Orbitrap ID-X high-resolution mass spectrometer (Thermo Scientific, Waltham, MA, USA) coupled to an LC-30 Nexera liquid chromatograph (Shimadzu, Kyoto, Japan) in LC-HRMS mode. An HPLC system consisted of two LC-30AD chromatographic pumps, a DGU-5A vacuum degasser, a SIL-30AC autosampler, an STO-20A column thermostat, and a CBM-20A system controller. The components of the secretions were separated on an XDB-C18 column (Agilent, Santa Clara, CA, USA) with a length of 100 mm and phase particle size of 1.8 μm. Gradient chromatography was performed using the following solutions: A—0.1% formic acid solution in deionized water (Milli-Q, Millipore, Molsheim, France); B—0.1% formic acid solution in acetonitrile containing 2% deionized water. All lyophilized samples were dissolved in phase B prior to the analysis. Injection volume was set to 0.1 µL. […]

[1] = sample 1: HCl final concentration 1%, all forms = 100%
[2] = sample 1: aqueous P. esculentus skin secretion, HCl added to final concentration 1%, sum of intensities of all forms of the peptide = 100%
[3] = sample 2: CH3OH, all forms = 100%
[4] = sample 2: aqueous P. esculentus skin secretion with CH3OH added, all forms = 100%
[5] = sample 3: HCOOH final concentration 1%, all forms = 100%
[6] = sample 3: aqueous P. esculentus skin secretion, HCOOH added to final concentration 1%, all forms = 100%
[7] = sample 4: aqueous P. esculentus skin secretion, PMSF 0.1 mM (in DMSO), all forms = 100%
[8] = sample 5: PMSF 1.0 mM (in DMSO), all forms = 100%
[9] = sample 5: aqueous P. esculentus skin secretion, PMSF 1.0 mM (in DMSO), all forms = 100%
[10] = sample 4: PMSF 0.1 mM (in DMSO), all forms = 100%

| Molecule | Proteoforms, % [1] | Intact, % [2] [%] | Proteoforms, % [3] | Intact, % [4] [%] | Proteoforms, % [5] [%] | Intact, % [6] [%] | Intact, % [7] [%] | Proteoforms, % [8] | Intact, % [9] [%] | Efficiency of the reagent in deactivating proteases in amphibian skin secretions | Proteoforms, % [10] | Oxidized, % [1] [%] | Oxidized, % [10] [%] |
| --- | --- | --- | --- | --- | --- | --- | --- | --- | --- | --- | --- | --- | --- |
| CC[C@H](C)[C@H](NC(=O)[C@@H](N)C(C)C)C(=O)N1CCC[C@H]1C(=O)N[C@@H](Cc1ccccc1)C(=O)N[C@H](C(=O)N[C@@H](C)C(=O)N[C@@H](CO)C(=O)N[C@H](C(=O)N[C@@H](C)C(=O)N[C@@H](C)C(=O)N[C@@H](CCC(=O)O)C(=O)N[C@@H](CCSC)C(=O)N[C@@H](CCSC)C(=O)N[C@@H](CCC(N)=O)C(=O)N[C@@H](Cc1c[nH]cn1)C(=O)N[C@H](C(=O)N[C@@H](Cc1ccc(O)cc1)C(=O)N[C@H]1CSSC[C@@H](C(=O)O)NC(=O)[C@H](CCCNC(=N)N)NC(=O)[C@H](CCCNC(=N)N)NC(=O)[C@H](CO)NC(=O)[C@H](C)NC(=O)[C@H](C)NC1=O)C(C)C)C(C)C)C(C)C [Brev 1Ra, Brevinin 1Ra] (H-VIPFVASVAAEMMQHVYCAASRRC-OH; disulfide 18-24) | 0.75% | 93.51 | 0.60% | 98.27 | 0.30 | 99.51 | 77.80 | 0.53% | 99.47 | – | – | – | – |
| CO [Methanol, reference compound] | – | – | – | – | – | – | – | – | – | most efficient | – | – | – |
| O=S(=O)(F)Cc1ccccc1 [PMSF, phenylmethylsulfonyl fluoride, reference compound] | – | – | – | – | – | – | – | – | – | ineffective | – | – | – |
| CC[C@H](C)[C@H](NC(=O)[C@H](CC(N)=O)NC(=O)[C@@H](NC(=O)[C@H](C)N)C(C)C)C(=O)N1CCC[C@H]1C(=O)N[C@@H](Cc1ccccc1)C(=O)N[C@@H](CCCCN)C(=O)N[C@H](C(=O)N[C@@H](CCCCN)C(=O)N[C@@H](Cc1ccccc1)C(=O)N[C@@H](CCCNC(=N)N)C(=O)N[C@H]1CSSC[C@@H](C(=O)O)NC(=O)[C@H](Cc2ccccc2)NC(=O)[C@H](C)NC(=O)[C@H](C)NC(=O)[C@H](CCCCN)NC1=O)C(C)C [Ranat 2R, Ranatuerin 2R] (H-AVNIPFKVKFRCKAAFC-OH; disulfide 12-17) | 14.79% | 85.21 | proteolytic fragments were not recorded | 100 | 34.99 | 65.01 | – | proteolytic fragments were not recorded | 100 | – | proteolytic fragments were not recorded | – | – |
| FFPAFLKVAAKVVPSXXCSITKKC-OH (disulfide) [Brev 1LE, Brevinin 1LE, natural disulfide skin peptide of Pelophylax esculentus, brevinin 1 family, 24 aa] | not a single proteolytic fragment was formed | 100 | not a single proteolytic fragment was formed | 100 | 1.63 | 98.37 | 7.27 | 89.74% | 10.26 | – | 92.73% | – | – |
| GIFSKLGRKKIKNLLISGLKNVGKEVGMDVVRTGIDIAGCKIKGEC (disulfide 40-46) [Escul 1, Esculentin 1] | 51.77% | 38.61 | 20.01% | 79.99 | 16.99 | 72.22 | 3.32 | 91.90% | 8.10 | – | 94.40% | – | – |
| GXFSKXAGKKXKNLXISGXKSVGKEVGMDVVRTGIDIAGCKIKGEC-OH (disulfide) [Escul 1R, Esculentin 1R, natural disulfide skin peptide of Pelophylax esculentus, esculentin 1 family, 46 aa] | 27.69% | 64.86 | 22.15% | 77.85 | 15.59 | 84.41 | 2.42 | 99.26% | 0.74 | – | 97.33% | 7.45 | 0.25 |
| GXLDSLKNFAKDAAGILLKKASCKLSGQC-OH (disulfide) [Brev 2Ra, Brevinin 2Ra, natural disulfide skin peptide of Pelophylax esculentus, brevinin 2 family, 29 aa] | 1.02% | 98.98 | did not degrade | 100 | 1.30 | 98.70 | 11.80 | 14.01% | 85.99 | – | 88.21% | – | – |
| GXLDSLKNLAKNAAQILLNKASCKLSGQC-OH (disulfide) [Brev 2Rd, Brevinin 2Rd, natural disulfide skin peptide of Pelophylax esculentus, brevinin 2 family, 29 aa] | 0.39% | 99.61 | did not degrade | 100 | 2.23 | 97.77 | 1.55 | 79.16% | 20.84 | – | 98.45% | – | – |
| GXLSTLKNVAKTAGKGALQSLLNAASCKLSGQC-OH (disulfide) [Brev 2L, Brevinin 2L, natural disulfide skin peptide of Pelophylax esculentus, brevinin 2 family, 33 aa] | 1.21% | 98.79 | 4.66% | 95.34 | 4.74 | 95.26 | 0.36 | 80.51% | 19.49 | – | 99.64% | – | – |
| GXWNTXKATGKSA ASNVAVTLLDKAKCK(LV)GEC-OH (disulfide) [Brev 2La, Brevinin 2La, natural disulfide skin peptide of Pelophylax esculentus, brevinin 2 family, 33 aa] | 69.02% | 30.98 | not observed at all | 100 | 4.98 | 95.02 | – | not observed at all | – | – | – | – | – |
